The values below come from PubChem BioAssay AID1259342 (Broad Institute, 2017).

Calls of active or inactive are those of the source.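 Rule for the calls: active = fitted half-maximal inhibitory concentration AC50 at most ten times the top concentration tested; inconclusive = flat fit with 30 to 70% inhibition, or unusable fit; inactive = AC50 above ten times the top concentration.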

Sequence of E3 ubiquitin-protein ligase TRIM62 (Homo sapiens) (Q9BVG3 whole entry, looked up): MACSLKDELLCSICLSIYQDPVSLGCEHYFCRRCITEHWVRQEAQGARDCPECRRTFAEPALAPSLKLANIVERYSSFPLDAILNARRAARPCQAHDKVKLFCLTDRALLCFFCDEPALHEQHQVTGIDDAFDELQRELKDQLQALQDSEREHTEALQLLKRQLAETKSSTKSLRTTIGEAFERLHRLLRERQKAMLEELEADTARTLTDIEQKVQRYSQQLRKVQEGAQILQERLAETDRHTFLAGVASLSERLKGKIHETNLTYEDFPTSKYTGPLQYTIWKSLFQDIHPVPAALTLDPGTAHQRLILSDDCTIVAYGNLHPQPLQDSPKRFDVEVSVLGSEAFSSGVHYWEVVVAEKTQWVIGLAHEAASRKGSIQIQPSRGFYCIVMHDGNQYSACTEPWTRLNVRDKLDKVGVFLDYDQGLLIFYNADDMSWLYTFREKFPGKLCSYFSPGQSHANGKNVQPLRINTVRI

One experiment concerns the target E3 ubiquitin-protein ligase TRIM62 (Homo sapiens) (UniProt Q9BVG3). Briefly: TRIM62 E3 ligase activity on CARD9 – biochemical, ubiquitin ELISA, AlphaLISA TUBE, CARD9-TRIM62 disruptor project, dose response (AID 1259342).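 For AC50: potency is for inhibitors that reduce CARD9 ubiquitylation signal.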 The settings on record: TRIM62-mediated CARD9 ubiquitylation, AlphaLISA TUBE detection. (ELISA stands for enzyme-linked immunosorbent assay.)
Regarding `Cc1sc2ncnc(SCc3ccco3)c2c1C`, the AC50 was 56.6 µM.
The same measure, in the same setting: under `O=C(Cc1ccc(S(=O)(=O)N2CCOCC2)s1)Nc1nc2c(s1)CCCC2` stands 26 µM; under `O=C(COC(=O)CCC(=O)c1cccs1)NCc1ccco1`, 16.6 µM; under `CCc1nc(OCc2ccco2)c2sc3nc4c(cc3c2n1)COC(C)(C)C4`, > 160 µM (inactive).
On the same count and under the same terms, under `CCOc1cc2c(C#N)c(N3CCNCC3)nc(N)c2c(N)n1` stands > 160 µM (inactive).
On the same count and under the same terms, for `O=C(Nc1nccs1)c1cc(-c2ccco2)nc2ccccc12` the value was 15.7 µM.
Consider `O=C(O)Cc1c[nH]c2cccc(O)c12`, for which the AC50 was 0.921 µM.
`COc1cc(N)c(Cc2nccc3cc(OC)c(OC)cc23)cc1OC`: the half-maximal activity concentration (AC50) is 79.5 µM.
With `C[C@H](CO)N1C[C@H](C)[C@@H](CN(C)CC2CCCCC2)OCCCC[C@H](C)Oc2ccc(NS(C)(=O)=O)cc2C1=O`, the AC50 was > 160 µM (inactive).
Take `Cc1c(C(=O)OCC2CCCO2)[nH]c2c1C(=O)CC(c1ccco1)C2` (configuration not stated): the half-maximal activity concentration (AC50) is 38.1 µM.
Regarding `O=C(O)CCc1ccc(-c2cccs2)n1NC(=O)c1ccco1`, the half-maximal activity concentration (AC50) was 63.5 µM.
For the molecule `COc1ccc(S(=O)(=O)N2CCN(C(=O)c3cc4c(s3)CCC4)CC2)cc1`, the AC50 was 10.2 µM.
Consider `NC(=O)C1(N2CCCCC2)CCN(c2ncc(NC(=O)c3cccs3)cc2C(=O)O)CC1`, for which the half-maximal activity concentration (AC50) is 35.8 µM.
For `Cc1ccc(N2NC(c3ccc(Br)cc3)=CCC2=O)cc1`, the AC50 is > 160 µM (inactive).
Same read-out and setting: under `O=C(NC1CC1)c1cc(-c2ccco2)nc2ccccc12` stands 21.2 µM; under `COCCn1c(C)cc(-c2csc(N)n2)c1C`, 68.3 µM; under `O=C(O)c1cc(-c2ccc(-c3ccc(F)cc3)o2)nc2ccccc12`, 31.4 µM.
For the molecule `O=[N+]([O-])c1ccc2nn(Cc3ccccc3)cc2c1`, the AC50 is > 160 µM (inactive).
On to `Cc1nc(C)c(C(=O)Nc2ncc([N+](=O)[O-])s2)o1`, for which the half-maximal activity concentration (AC50) was 3.96 µM.
The same measure, in the same setting: under `N#Cc1c(NC(=O)CSc2nc3ccccc3o2)sc2c1CCC2` stands 74.1 µM.

Staying with this experiment, now noted: TRIM62-mediated CARD9 ubiquitylation, AlphaLISA TUBE detection; at 38 µM (top of the series).
Take `CCCCCn1c(NC(=O)c2ccco2)c(C(=O)OCC)c2nc3ccccc3nc21`: the “activity change, negative = inhibition” value was “inactive”.
`Cc1ccc(-c2cc(C(=O)NCc3ccco3)c3ccccc3n2)o1`: the “activity change, negative = inhibition” value was “inactive”.

The same experiment, now with this note: TRIM62-mediated CARD9 ubiquitylation, AlphaLISA TUBE detection; at 80 µM (top of the series).
In the case of `O=C(Nc1ccc2c(c1)nc1n2CCN(C2CCCCC2)C1)c1ccco1`, the “activity change, negative = inhibition” value was “inactive”.
Turning to `Cc1c(/C=C/c2nc3ccccc3c(=O)n2-c2ccccn2)c2ccccc2n1C`, the “activity change, negative = inhibition” value was “inactive”.
Consider `CC(C(=O)N1CCCC1)N1CCN(c2ccccc2O)CC1` (configuration not stated), for which the “activity change, negative = inhibition” value was “inactive”.
For `O=C(N/N=C/C=C/c1ccco1)c1cncc(Br)c1`, the “activity change, negative = inhibition” value is “inactive”.
Take `CCOc1ccc(-n2c3nc4ccccc4nc3c3c(=O)n(Cc4ccco4)cnc32)cc1`: the “activity change, negative = inhibition” value is “inactive”.
Take `COc1ccc(-c2nnc(-c3nc(Nc4ccc(NC(C)=O)cc4)c4ccccc4n3)o2)cc1`: the “activity change, negative = inhibition” value was “inactive”.
As for `O=C(O)COCC(=O)NCc1ccco1`, the “activity change, negative = inhibition” value was “inactive”.
For the molecule `COCC(=O)n1nc(-c2ccco2)nc1NCc1cccs1`, the “activity change, negative = inhibition” value is “inactive”.
On to `O=C(NCc1ccco1)[C@@H]1CSC2c3ccccc3C(=O)N21` (some centres not stated), for which the “activity change, negative = inhibition” value was “inactive”.
Consider `CCCOc1ccc(CCC(=O)O)cc1`, for which the “activity change, negative = inhibition” value is “inactive”.
For the molecule `Cc1ccc(Nc2nc(C(=O)Nc3ccc(Cl)cc3)nc3ccccc23)cc1`, the “activity change, negative = inhibition” value is “inactive”.
Same read-out and setting: for `O=C(Nc1ccc2oc(-c3cccnc3)nc2c1)c1ccc2c(c1)OCCO2` the value was “inactive”.
Consider `O=C(Nc1ccc(OCC(=O)N2CCOCC2)cc1)c1cncc(Br)c1`, for which the “activity change, negative = inhibition” value is “inactive”.
`CCn1ccnc1C1CCN(C(=O)CCn2c(C)nc3ccccc32)CC1`: the “activity change, negative = inhibition” value was “inactive”.
For the molecule `CCCc1cc(C(=O)N2CC[C@H]3CNC[C@H]32)n(C)n1`, the “activity change, negative = inhibition” value was “inactive”.

In general, AC50 refers to the midpoint of the concentration-response curve, whichever way the signal moves.
